Reference: ChEMBL document CHEMBL3885881, “DrugMatrix”

Organism: Rattus norvegicus
Experiment: DrugMatrix - Regimen: Daily Repeat
Type: toxicity, organism-based, Sprague-Dawley
Set-up: regimen Daily Repeat, gender Male, age 6-8 weeks
Settings: in vivo, ip, 0.5 mg/kg, route intraperitoneal, dose level High, vehicle 100 % SALINE; for ALANINE AMINOTRANSFERASE / ALBUMIN / ALKALINE PHOSPHATASE / ASPARTATE AMINOTRANSFERASE / BLOOD UREA NITROGEN / CHLORIDE / CHOLESTEROL / CREATINE PHOSPHOKINASE / CREATININE / GLUCOSE / LACTATE DEHYDROGENASE / LIPASE / PHOSPHORUS / POTASSIUM / SODIUM / TOTAL BILIRUBIN / TOTAL PROTEIN / URIC ACID: tissue Plasma
[1] = 120 h, tissue Blood, time 5 day

Sequence: TRANSPLATIN
- ABSOLUTE BASOPHIL [1]: 86 cells/µL
- ABSOLUTE EOSINOPHIL [1]: 98 cells/µL
- ABSOLUTE LYMPHOCYTE [1]: 10800 cells/µL
- ABSOLUTE MONOCYTE [1]: 340 cells/µL
- ABSOLUTE SEGMENTED NEUTROPHIL [1]: 1910 cells/µL
- BASOPHIL [1]: 0.64%
- EOSINOPHIL [1]: 0.74%
- ERYTHROCYTE COUNT [1]: 7.41 x10E6/uL
- HEMATOCRIT [1]: 45.48%
- HEMOGLOBIN [1]: 14.92 G/DL
- LEUKOCYTE COUNT [1]: 13.36 x10E3/uL
- LYMPHOCYTE [1]: 80.42%
- MEAN CORPUSCULAR HEMOGLOBIN [1]: 20.12 pg
- MEAN CORPUSCULAR HEMOGLOBIN CONCENTRATION [1]: 32.8 G/DL
- MONOCYTE [1]: 2.5%
- NEUTROPHIL [1]: 14.94%
- PLATELET COUNT [1]: 1349 x10E3/uL
- ALANINE AMINOTRANSFERASE (120 h, time 5 day): 30.2 u/L
- ALBUMIN (120 h, time 5 day): 3.6 G/DL
- ALKALINE PHOSPHATASE (120 h, time 5 day): 229 u/L
- ASPARTATE AMINOTRANSFERASE (120 h, time 5 day): 82.8 u/L
- BLOOD UREA NITROGEN (120 h, time 5 day): 15 mg/dL
- CHLORIDE (120 h, time 5 day): 110 MEQ/L
- CHOLESTEROL (120 h, time 5 day): 67.2 mg/dL
- CREATINE PHOSPHOKINASE (120 h, time 5 day): 368.2 u/L
- CREATININE (120 h, time 5 day): 0.52 mg/dL
- GLUCOSE (120 h, time 5 day): 119 mg/dL
- LACTATE DEHYDROGENASE (120 h, time 5 day): 67.6 u/L
- LIPASE (120 h, time 5 day): 22.4 u/L
- PHOSPHORUS (120 h, time 5 day): 9.94 mg/dL
- POTASSIUM (120 h, time 5 day): 6.16 MEQ/L
- SODIUM (120 h, time 5 day): 151.8 MEQ/L
- TOTAL BILIRUBIN (120 h, time 5 day): 0.2 mg/dL
- TOTAL PROTEIN (120 h, time 5 day): 6.2 G/DL
- URIC ACID (120 h, time 5 day): 0.98 mg/dL
- ABSOLUTE BASOPHIL ([…], tissue Blood, time 14 day): 68 cells/µL
- ABSOLUTE EOSINOPHIL ([…], tissue Blood, time 14 day): 76 cells/µL
- ABSOLUTE LYMPHOCYTE ([…], tissue Blood, time 14 day): 6430 cells/µL
- ABSOLUTE MONOCYTE ([…], tissue Blood, time 14 day): 260 cells/µL
- ABSOLUTE SEGMENTED NEUTROPHIL ([…], tissue Blood, time 14 day): 2460 cells/µL
- BASOPHIL ([…], tissue Blood, time 14 day): 0.74%
- EOSINOPHIL ([…], tissue Blood, time 14 day): 0.84%
- ERYTHROCYTE COUNT ([…], tissue Blood, time 14 day): 7.71 x10E6/uL
- HEMATOCRIT ([…], tissue Blood, time 14 day): 46.84%
- HEMOGLOBIN ([…], tissue Blood, time 14 day): 15.04 G/DL
- LEUKOCYTE COUNT ([…], tissue Blood, time 14 day): 9.33 x10E3/uL
- LYMPHOCYTE ([…], tissue Blood, time 14 day): 69.2%
- MEAN CORPUSCULAR HEMOGLOBIN ([…], tissue Blood, time 14 day): 19.52 pg
- MEAN CORPUSCULAR HEMOGLOBIN CONCENTRATION ([…], tissue Blood, time 14 day): 32.1 G/DL
- MONOCYTE ([…], tissue Blood, time 14 day): 2.7%
- NEUTROPHIL ([…], tissue Blood, time 14 day): 26.14%
- PLATELET COUNT ([…], tissue Blood, time 14 day): 1318.6 x10E3/uL
- ABSOLUTE BASOPHIL ([…], tissue Blood, time 28 day): 120 cells/µL
- ABSOLUTE EOSINOPHIL ([…], tissue Blood, time 28 day): 130 cells/µL
- ABSOLUTE LYMPHOCYTE ([…], tissue Blood, time 28 day): 9640 cells/µL
- ABSOLUTE MONOCYTE ([…], tissue Blood, time 28 day): 190 cells/µL
- ABSOLUTE SEGMENTED NEUTROPHIL ([…], tissue Blood, time 28 day): 1790 cells/µL
- BASOPHIL ([…], tissue Blood, time 28 day): 1.07%
- EOSINOPHIL ([…], tissue Blood, time 28 day): 1.08%
- ERYTHROCYTE COUNT ([…], tissue Blood, time 28 day): 8.68 x10E6/uL
- HEMATOCRIT ([…], tissue Blood, time 28 day): 49.56%
- LEUKOCYTE COUNT ([…], tissue Blood, time 28 day): 11.93 x10E3/uL
- LYMPHOCYTE ([…], tissue Blood, time 28 day): 80.6%
- MEAN CORPUSCULAR HEMOGLOBIN ([…], tissue Blood, time 28 day): 18.81 pg
- MEAN CORPUSCULAR HEMOGLOBIN CONCENTRATION ([…], tissue Blood, time 28 day): 32.89 G/DL
- MEAN CORPUSCULAR VOLUME ([…], tissue Blood, time 28 day): 57.13 fL
- MONOCYTE ([…], tissue Blood, time 28 day): 1.64%
- NEUTROPHIL ([…], tissue Blood, time 28 day): 15.11%
- PLATELET COUNT ([…], tissue Blood, time 28 day): 1319.89 x10E3/uL
- ALANINE AMINOTRANSFERASE ([…], time 14 day): 24.6 u/L
- ALBUMIN ([…], time 14 day): 3.5 G/DL
- ALKALINE PHOSPHATASE ([…], time 14 day): 202 u/L
- ASPARTATE AMINOTRANSFERASE ([…], time 14 day): 78.6 u/L
- BLOOD UREA NITROGEN ([…], time 14 day): 12.6 mg/dL
- CHOLESTEROL ([…], time 14 day): 52.8 mg/dL
- CREATINE PHOSPHOKINASE ([…], time 14 day): 180.2 u/L
- CREATININE ([…], time 14 day): 0.58 mg/dL
- GLUCOSE ([…], time 14 day): 120.4 mg/dL
- LACTATE DEHYDROGENASE ([…], time 14 day): 80.8 u/L
- LIPASE ([…], time 14 day): 54.4 u/L
- POTASSIUM ([…], time 14 day): 5.82 MEQ/L
- SODIUM ([…], time 14 day): 150.8 MEQ/L
- TOTAL BILIRUBIN ([…], time 14 day): 0.3 mg/dL
- TOTAL PROTEIN ([…], time 14 day): 6.48 G/DL
- URIC ACID ([…], time 14 day): 0.98 mg/dL
- ALANINE AMINOTRANSFERASE ([…], time 28 day): 35.44 u/L
- ALBUMIN ([…], time 28 day): 3.69 G/DL
- ALKALINE PHOSPHATASE ([…], time 28 day): 151 u/L
- ASPARTATE AMINOTRANSFERASE ([…], time 28 day): 83 u/L
- BLOOD UREA NITROGEN ([…], time 28 day): 14 mg/dL
- CHLORIDE ([…], time 28 day): 108.89 MEQ/L
- CHOLESTEROL ([…], time 28 day): 61.44 mg/dL
- CREATINE PHOSPHOKINASE ([…], time 28 day): 144.22 u/L
- CREATININE ([…], time 28 day): 0.58 mg/dL
- GLUCOSE ([…], time 28 day): 132.22 mg/dL
- LACTATE DEHYDROGENASE ([…], time 28 day): 67.22 u/L
- LIPASE ([…], time 28 day): 45.22 u/L
- PHOSPHORUS ([…], time 28 day): 9.38 mg/dL
- SODIUM ([…], time 28 day): 151.78 MEQ/L
- TOTAL BILIRUBIN ([…], time 28 day): 0.2 mg/dL
- TOTAL PROTEIN ([…], time 28 day): 6.82 G/DL
- URIC ACID ([…], time 28 day): 1.21 mg/dL
